Reference: ChEMBL document CHEMBL2073947, “The human multidrug resistance protein MRP4 functions as a prostaglandin efflux transporter and is inhibited by nonsteroidal antiinflammatory drugs” (Proc Natl Acad Sci U S A, 2003)

Experiments:
[1] = target: Multidrug resistance-associated protein 1 (Homo sapiens, UniProt P33527); experiment: TP_TRANSPORTER: inhibition of E217betaG in the presence of Indomethacin at a concentration of 50uM in membrane vesicles from MRP1-expressing Sf9 cells; assay type: functional, cell membranes, Membrane vesicle; set-up: scale not given: the % may be the effect or the level left; conditions: sf9, 50 µM
[2] = target: T1, ATP-binding cassette sub-family C member 4 (Homo sapiens, UniProt O15439); experiment: TP_TRANSPORTER: inhibition of E217betaG in the presence of Indomethacin at a concentration of 50uM in membrane vesicles from MRP4-expressing Sf9 cells; assay type: functional, cell membranes, Membrane vesicle; set-up: scale not given: the % may be the effect or the level left; conditions: sf9, 50 µM
T1 sequence (O15439 whole entry): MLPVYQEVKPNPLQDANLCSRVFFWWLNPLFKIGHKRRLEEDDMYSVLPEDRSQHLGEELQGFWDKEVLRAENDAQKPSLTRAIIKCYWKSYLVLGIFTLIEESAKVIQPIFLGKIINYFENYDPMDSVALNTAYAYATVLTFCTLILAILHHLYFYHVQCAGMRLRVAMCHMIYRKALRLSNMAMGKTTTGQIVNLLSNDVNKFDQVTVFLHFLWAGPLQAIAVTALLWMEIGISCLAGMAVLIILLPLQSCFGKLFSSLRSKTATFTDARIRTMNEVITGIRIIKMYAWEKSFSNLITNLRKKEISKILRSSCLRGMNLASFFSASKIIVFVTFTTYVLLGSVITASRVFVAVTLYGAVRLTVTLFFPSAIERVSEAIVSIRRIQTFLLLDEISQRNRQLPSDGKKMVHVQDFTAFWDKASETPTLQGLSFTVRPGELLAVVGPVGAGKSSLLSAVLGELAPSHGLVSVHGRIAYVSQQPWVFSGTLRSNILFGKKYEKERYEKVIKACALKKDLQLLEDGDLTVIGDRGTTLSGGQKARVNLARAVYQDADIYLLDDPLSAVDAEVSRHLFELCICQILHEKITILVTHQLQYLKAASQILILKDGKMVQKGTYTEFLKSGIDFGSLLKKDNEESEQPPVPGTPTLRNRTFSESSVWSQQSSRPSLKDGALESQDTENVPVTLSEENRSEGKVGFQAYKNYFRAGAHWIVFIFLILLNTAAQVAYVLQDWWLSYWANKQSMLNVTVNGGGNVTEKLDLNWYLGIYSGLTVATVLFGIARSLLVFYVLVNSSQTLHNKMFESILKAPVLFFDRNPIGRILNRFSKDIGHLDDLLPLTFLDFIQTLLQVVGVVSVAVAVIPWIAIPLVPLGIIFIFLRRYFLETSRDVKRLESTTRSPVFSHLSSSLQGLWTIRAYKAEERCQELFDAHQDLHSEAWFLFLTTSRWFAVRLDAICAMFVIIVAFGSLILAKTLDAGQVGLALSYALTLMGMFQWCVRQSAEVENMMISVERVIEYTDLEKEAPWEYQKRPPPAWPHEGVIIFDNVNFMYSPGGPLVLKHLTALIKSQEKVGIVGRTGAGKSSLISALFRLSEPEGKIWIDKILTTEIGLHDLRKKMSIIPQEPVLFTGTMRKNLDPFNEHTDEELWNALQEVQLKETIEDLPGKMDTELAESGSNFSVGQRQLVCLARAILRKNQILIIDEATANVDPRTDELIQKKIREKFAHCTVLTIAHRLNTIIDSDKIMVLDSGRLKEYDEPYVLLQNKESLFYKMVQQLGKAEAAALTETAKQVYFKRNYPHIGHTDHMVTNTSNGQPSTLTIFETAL

[3] = target: T2, MRP4 (ATP-binding cassette sub-family C member 4) (Homo sapiens, UniProt O15439); experiment: TP_TRANSPORTER: inhibition of E217betaG in the presence of Indoprofen at a concentration of 50uM in membrane vesicles from MRP4-expressing Sf9 cells; assay type: functional, cell membranes, Membrane vesicle; set-up: scale not given: the % may be the effect or the level left; conditions: probe E217betaG, read-out: Activity
T2 sequence (O15439 whole entry): T1 sequence (O15439 whole entry)

[4] = target: T1, ATP-binding cassette sub-family C member 4; experiment: TP_TRANSPORTER: inhibition of E217betaG in the presence of Ketoprofen at a concentration of 50uM in membrane vesicles from MRP4-expressing Sf9 cells; assay type: functional, cell membranes, Membrane vesicle; set-up: scale not given: the % may be the effect or the level left; conditions: sf9, 50 µM
[5] = target: Multidrug resistance associated protein (Homo sapiens) (UniProt Q96QA9); experiment: TP_TRANSPORTER: inhibition of alaninyl-d4TMP by Prostaglandin A1 at a concentration of 20uM in membrane vesicle from MRP3-expressing Sf9 cells; assay type: functional, cell membranes; set-up: scale not given: the % may be the effect or the level left
Sequence of Multidrug resistance associated protein (Homo sapiens) (Q96QA9 as listed by the source): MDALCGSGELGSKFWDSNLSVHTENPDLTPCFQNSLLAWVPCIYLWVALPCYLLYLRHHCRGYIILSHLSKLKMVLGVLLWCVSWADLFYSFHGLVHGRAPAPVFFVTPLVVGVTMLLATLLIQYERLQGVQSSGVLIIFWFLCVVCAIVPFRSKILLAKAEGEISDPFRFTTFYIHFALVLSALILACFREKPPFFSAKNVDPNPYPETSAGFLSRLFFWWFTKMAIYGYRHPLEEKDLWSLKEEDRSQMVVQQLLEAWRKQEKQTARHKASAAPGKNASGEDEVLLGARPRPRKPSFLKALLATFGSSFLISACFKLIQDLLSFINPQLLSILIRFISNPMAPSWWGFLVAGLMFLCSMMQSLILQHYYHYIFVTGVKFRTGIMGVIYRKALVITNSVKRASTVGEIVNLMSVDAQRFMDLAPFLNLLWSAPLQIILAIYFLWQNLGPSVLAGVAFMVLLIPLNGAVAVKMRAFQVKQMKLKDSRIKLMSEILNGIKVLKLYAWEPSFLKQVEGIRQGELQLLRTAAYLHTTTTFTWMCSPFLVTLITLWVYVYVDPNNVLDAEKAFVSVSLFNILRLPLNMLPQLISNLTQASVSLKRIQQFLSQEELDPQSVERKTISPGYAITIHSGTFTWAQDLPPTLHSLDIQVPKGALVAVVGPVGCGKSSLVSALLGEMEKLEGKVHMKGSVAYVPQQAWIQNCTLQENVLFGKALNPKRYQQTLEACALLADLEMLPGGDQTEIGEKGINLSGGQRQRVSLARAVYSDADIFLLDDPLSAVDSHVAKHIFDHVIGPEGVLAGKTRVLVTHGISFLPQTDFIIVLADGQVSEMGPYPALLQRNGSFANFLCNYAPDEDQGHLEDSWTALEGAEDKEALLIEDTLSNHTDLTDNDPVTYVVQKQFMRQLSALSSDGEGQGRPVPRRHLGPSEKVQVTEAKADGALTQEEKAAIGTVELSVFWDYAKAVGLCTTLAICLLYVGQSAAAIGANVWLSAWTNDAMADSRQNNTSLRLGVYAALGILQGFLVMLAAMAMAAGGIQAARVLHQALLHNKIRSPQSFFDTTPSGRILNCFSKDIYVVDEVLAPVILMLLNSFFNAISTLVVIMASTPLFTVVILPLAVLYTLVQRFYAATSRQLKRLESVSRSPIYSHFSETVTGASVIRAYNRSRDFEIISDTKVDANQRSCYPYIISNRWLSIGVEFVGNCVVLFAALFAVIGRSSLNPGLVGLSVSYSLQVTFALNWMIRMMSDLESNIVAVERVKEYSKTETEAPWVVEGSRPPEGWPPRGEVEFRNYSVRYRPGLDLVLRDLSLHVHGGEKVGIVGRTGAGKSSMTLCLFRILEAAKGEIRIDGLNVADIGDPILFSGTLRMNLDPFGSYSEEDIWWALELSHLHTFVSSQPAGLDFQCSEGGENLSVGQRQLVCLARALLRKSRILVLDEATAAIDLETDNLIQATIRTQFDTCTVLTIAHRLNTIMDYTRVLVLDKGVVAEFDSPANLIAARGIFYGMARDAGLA

[6] = target: T1, ATP-binding cassette sub-family C member 4; experiment: TP_TRANSPORTER: inhibition of alaninyl-d4TMP in the presence of Prostaglandin A1 at a concentration of 20uM in membrane vesicles from MRP4-expressing Sf9 cells; assay type: functional, cell membranes, Membrane vesicle; set-up: scale not given: the % may be the effect or the level left; conditions: sf9, 20 µM
[7] = target: MRP5 (ATP-binding cassette sub-family C member 5) (Homo sapiens, UniProt O15440); experiment: TP_TRANSPORTER: inhibition of alaninyl-d4TMP by Prostaglandin A1 at a concentration of 20uM in membrane vesicle from MRP5-expressing HEK293 cells; assay type: functional, cell membranes; set-up: scale not given: the % may be the effect or the level left; conditions: probe alaninyl-d4TMP, read-out: Activity
Sequence of MRP5 (ATP-binding cassette sub-family C member 5) (O15440 whole entry): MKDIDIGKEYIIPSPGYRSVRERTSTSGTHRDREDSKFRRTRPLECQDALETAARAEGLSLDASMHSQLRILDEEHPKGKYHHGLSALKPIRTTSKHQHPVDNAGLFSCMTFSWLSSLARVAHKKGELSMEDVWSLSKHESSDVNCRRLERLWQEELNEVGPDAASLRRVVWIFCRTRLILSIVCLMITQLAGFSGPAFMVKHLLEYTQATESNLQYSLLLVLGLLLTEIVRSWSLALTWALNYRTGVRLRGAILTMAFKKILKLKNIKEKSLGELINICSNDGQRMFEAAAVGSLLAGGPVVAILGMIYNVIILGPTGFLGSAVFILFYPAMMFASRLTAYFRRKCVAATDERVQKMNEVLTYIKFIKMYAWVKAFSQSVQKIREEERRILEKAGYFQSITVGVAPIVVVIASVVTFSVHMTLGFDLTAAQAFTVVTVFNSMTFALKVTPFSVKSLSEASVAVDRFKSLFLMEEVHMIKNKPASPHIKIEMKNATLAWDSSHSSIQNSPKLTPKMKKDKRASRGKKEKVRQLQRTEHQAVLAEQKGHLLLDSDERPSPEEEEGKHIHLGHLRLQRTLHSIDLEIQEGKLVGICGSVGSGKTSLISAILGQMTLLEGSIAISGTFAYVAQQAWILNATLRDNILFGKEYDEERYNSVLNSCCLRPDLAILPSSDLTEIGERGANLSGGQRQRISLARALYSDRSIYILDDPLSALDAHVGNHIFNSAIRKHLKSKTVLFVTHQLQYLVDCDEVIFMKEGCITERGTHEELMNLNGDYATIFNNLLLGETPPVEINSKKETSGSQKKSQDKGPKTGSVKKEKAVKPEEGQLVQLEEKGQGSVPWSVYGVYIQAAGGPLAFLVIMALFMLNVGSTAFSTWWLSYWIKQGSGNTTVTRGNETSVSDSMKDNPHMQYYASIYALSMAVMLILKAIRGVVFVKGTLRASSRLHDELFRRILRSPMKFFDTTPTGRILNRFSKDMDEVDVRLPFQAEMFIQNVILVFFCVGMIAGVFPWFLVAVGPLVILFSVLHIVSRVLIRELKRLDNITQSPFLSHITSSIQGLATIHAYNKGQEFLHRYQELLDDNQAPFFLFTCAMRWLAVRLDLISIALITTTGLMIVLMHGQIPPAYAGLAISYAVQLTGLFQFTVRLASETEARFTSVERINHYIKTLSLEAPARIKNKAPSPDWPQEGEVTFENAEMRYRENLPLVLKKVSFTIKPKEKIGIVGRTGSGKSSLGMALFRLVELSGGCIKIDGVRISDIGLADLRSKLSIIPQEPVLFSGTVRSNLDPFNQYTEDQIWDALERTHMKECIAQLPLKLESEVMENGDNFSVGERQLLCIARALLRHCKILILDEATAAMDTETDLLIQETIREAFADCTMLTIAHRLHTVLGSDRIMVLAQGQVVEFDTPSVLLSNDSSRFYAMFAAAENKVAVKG

[8] = target: T2, MRP4 (ATP-binding cassette sub-family C member 4); experiment: TP_TRANSPORTER: inhibition of alaninyl-d4TMP in the presence of Prostaglandin F1alpha at a concentration of 20uM in membrane vesicles from MRP4-expressing Sf9 cells; assay type: functional, cell membranes, Membrane vesicle; set-up: scale not given: the % may be the effect or the level left; conditions: probe alaninyl-d4TMP, read-out: Activity
[9] = target: T1, ATP-binding cassette sub-family C member 4; experiment: TP_TRANSPORTER: inhibition of E217betaG in the presence of Rofecoxib at a concentration of 100uM in membrane vesicles from MRP4-expressing Sf9 cells; assay type: functional, cell membranes, Membrane vesicle; set-up: scale not given: the % may be the effect or the level left; conditions: sf9, 100 µM
[10] = target: MRP1 (Multidrug resistance-associated protein 1) (Homo sapiens, UniProt P33527); experiment: TP_TRANSPORTER: inhibition of alaninyl-d4TMP in the presence of Thromboxane B2 at a concentration of 20uM in membrane vesicles from MRP1-expressing Sf9 cells; assay type: functional, cell membranes, Membrane vesicle; set-up: scale not given: the % may be the effect or the level left; conditions: probe alaninyl-d4TMP, read-out: Activity
[11] = target: Multidrug resistance associated protein (Homo sapiens) (UniProt Q96QA9); experiment: TP_TRANSPORTER: inhibition of alaninyl-d4TMP by Thromboxane B2 at a concentration of 20uM in membrane vesicle from MRP3-expressing Sf9 cells; assay type: functional, cell membranes; set-up: scale not given: the % may be the effect or the level left
[12] = target: ATP-binding cassette sub-family C member 5 (Homo sapiens, UniProt O15440); experiment: TP_TRANSPORTER: inhibition of alaninyl-d4TMP by Thromboxane B2 at a concentration of 20uM in membrane vesicle from MRP5-expressing HEK293 cells; assay type: functional, cell membranes; set-up: scale not given: the % may be the effect or the level left; conditions: hek293, 20 µM
Sequence of ATP-binding cassette sub-family C member 5 (O15440 whole entry): as above

[13] = target: T2, MRP4 (ATP-binding cassette sub-family C member 4); experiment: TP_TRANSPORTER: inhibition of alaninyl-d4TMP in the presence of Thromboxane B2 at a concentration of 20uM in membrane vesicles from MRP4-expressing Sf9 cells; assay type: functional, cell membranes, Membrane vesicle; set-up: scale not given: the % may be the effect or the level left; conditions: probe alaninyl-d4TMP, read-out: Activity
[14] = substrate: CCCCC[C@H](O)/C=C/[C@H]1[C@H](O)CC(=O)[C@@H]1C/C=C\CCCC(=O)O; experiment: (§1) TP_TRANSPORTER: uptake (vesicle) in membrane vesicles from MRP4-expressing Sf9 cells; assay type: functional, cell membranes
[15] = substrate: CCCCC[C@H](O)/C=C/[C@H]1[C@H](O)CC(=O)[C@@H]1CCCCCCC(=O)O; experiment: as §1; assay type: functional, cell membranes

COc1ccc2c(c1)c(CC(=O)O)c(C)n2C(=O)c1ccc(Cl)cc1 [INDOMETHACIN]
Activity [1]: 56%
Activity [2]: 11%

CC(C(=O)O)c1ccc(N2Cc3ccccc3C2=O)cc1 (stereo not given) [INDOPROFEN]
activity at 50 µM [3]: 17%

CC(C(=O)O)c1cccc(C(=O)c2ccccc2)c1 (stereo not given) [KETOPROFEN]
Activity [4]: 35%

CCCCC[C@H](O)/C=C/[C@H]1C=CC(=O)[C@@H]1CCCCCCC(=O)O [PROSTAGLANDIN A1]
Activity [5]: 76%
Activity [6]: 2%
activity at 20 µM [7]: 51%

CCCCC[C@H](O)/C=C/[C@@H]1[C@@H](CCCCCCC(=O)O)[C@@H](O)C[C@H]1O [PROSTAGLANDIN F1ALPHA]
activity at 20 µM [8]: 29%

CS(=O)(=O)c1ccc(C2=C(c3ccccc3)C(=O)OC2)cc1 [ROFECOXIB]
Activity [9]: 80%

CCCCC[C@H](O)/C=C/[C@H]1OC(O)C[C@H](O)[C@@H]1C/C=C\CCCC(=O)O (stereo not given in full) [THROMBOXANE B2]
activity at 20 µM [10]: 66%
Activity [11]: 76%
Activity [12]: 77%
activity at 20 µM [13]: 29%

B1: ATP-binding cassette sub-family C member 4 (Homo sapiens) (protein)
chain: T1 sequence (O15439 whole entry)
Km [14]: 3.4 µM
Km [15]: 2.1 µM
